Source: the supplement of paper PMC10307832

Experiments:
Assay in all cases: relative viability (nuclei count vs DMSO), 5 days (fraction); higher = more cells survive
[1] = compound: CC1CC(=O)N(C2=CN=C(N=C2N1C3CCCC3)NC4=C(C=C(C=C4)C(=O)NC5CCN(CC5)C)OC)C [NPK76-II-72-1] + CC1(C)CCC(c2ccc(Cl)cc2)=C(CN2CCN(c3ccc(C(=O)NS(=O)(=O)c4ccc(N[C@H](CCN5CCOCC5)CSc5ccccc5)c(S(=O)(=O)C(F)(F)F)c4)cc3)CC2)C1 [Navitoclax] (partner 0.5 µM)
Summary of the method: (§1)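 Lung cancer cell lines in 1536-well plates were dosed by pin tool the day after seeding, either with one drug alone or with a fixed anchor-drug dose plus five library-drug doses (not always all listed) in √10 steps. After 5 days, cells were fixed and their nuclei stained in one step (final 0.05% Triton X-100, 1% formaldehyde, 1 ug/ml Hoechst), then counted on 4× images. Relative viability is the nuclei count in treated wells divided by that in vehicle wells. Values are medians of duplicate plates.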

[2] = compound: CC[C@@H]1C(=O)N(C)c2cnc(Nc3ccc(C(=O)NC4CCN(C)CC4)cc3OC)nc2N1C1CCCC1 [BI-2536] + Cc1cc(Nc2cc(N3CCN(C)CC3)nc(Sc3ccc(NC(=O)C4CC4)cc3)n2)n[nH]1 [Tozasertib] (partner 0.1 µM)
Summary of the method: as §1

[3] = compound: CC[C@@H]1C(=O)N(C)c2cnc(Nc3ccc(C(=O)NC4CCN(C)CC4)cc3OC)nc2N1C1CCCC1 [BI-2536] + N=C(N)NC(=N)NCCc1ccccc1 [Phenformin] (partner 250 µM)
Summary of the method: as §1

[4] = compound: CC[C@@H]1C(=O)N(C)c2cnc(Nc3ccc(C(=O)NC4CCN(C)CC4)cc3OC)nc2N1C1CCCC1 [BI-2536] + Nc1ncn([C@H]2C[C@H](O)[C@@H](CO)O2)c(=O)n1 [Decitabine] (partner 2 µM)
Summary of the method: as §1

UMC-11
relative viability ([1]; first compound 0.01 µM): 0.313 | relative viability ([1]; first compound 0.03162 µM): 0.276 | relative viability ([1]; first compound 0.1 µM): 0.302 | relative viability ([1]; first compound 0.3162 µM): 0.305 | relative viability ([1]; first compound 1 µM): 0.357 | relative viability ([2]; first compound 0.01 µM): 0.184 | relative viability ([2]; first compound 0.03162 µM): 0.203 | relative viability ([2]; first compound 0.1 µM): 0.198 | relative viability ([2]; first compound 0.3162 µM): 0.31 | relative viability ([2]; first compound 1 µM): 0.361 | relative viability ([3]; first compound 0.01 µM): 0.286 | relative viability ([3]; first compound 0.03162 µM): 0.233 | relative viability ([3]; first compound 0.1 µM): 0.177 | relative viability ([3]; first compound 0.3162 µM): 0.192 | relative viability ([3]; first compound 1 µM): 0.175 | relative viability ([4]; first compound 0.01 µM): 0.568 | relative viability ([4]; first compound 0.03162 µM): 0.306 | relative viability ([4]; first compound 0.1 µM): 0.232 | relative viability ([4]; first compound 0.3162 µM): 0.265 | relative viability ([4]; first compound 1 µM): 0.28
